Data reported in US20150353495A1 (PORTOLA PHARMACEUTICALS, INC., priority 2010, published 2015).

Legend:
[1] = target: T1, TYK2 (Homo sapiens, UniProt P29597); assay: Z'-LYTE kinase assay TYK2; type: biochemical
T1 construct: 5 μl of catalytic domain recombinant Kinase enzyme+Tyr peptide substrate (Invitrogen, CA); purchased Invitrogen
T1 sequence (P29597 897-1176 limits assumed): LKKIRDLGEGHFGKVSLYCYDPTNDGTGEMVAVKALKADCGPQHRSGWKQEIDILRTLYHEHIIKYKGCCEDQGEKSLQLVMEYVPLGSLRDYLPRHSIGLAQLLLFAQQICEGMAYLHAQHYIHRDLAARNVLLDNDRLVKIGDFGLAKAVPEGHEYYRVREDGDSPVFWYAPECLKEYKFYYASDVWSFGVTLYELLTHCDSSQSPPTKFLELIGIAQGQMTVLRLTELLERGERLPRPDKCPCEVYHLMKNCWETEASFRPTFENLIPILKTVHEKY
Summary of the method: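 Recombinant catalytic-domain TYK2 with Tyr6 peptide in Z′-LYTE FRET format, 1% DMSO final, kinase reaction 1 h at room temperature, then protease development 1 h. Fluorescence read at 445/520 nm (excitation 400 nm), percent phosphorylation vs no-inhibitor control, IC50 from 4-parameter logistic fit.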

[2] = target: T2, JAK1 (Homo sapiens, UniProt P23458); assay: Z'-LYTE kinase assay JAK1; type: biochemical
T2 construct: 5 μl of catalytic domain recombinant Kinase enzyme+Tyr peptide substrate (Invitrogen, CA); purchased Invitrogen
Summary of the method: (§1)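 Catalytic-domain recombinant kinase was incubated with Tyr6 FRET peptide, ATP and compound (1% DMSO final) for 1 h at room temperature. Protease development followed for 1 h, cleaving only non-phosphorylated peptide. Inhibition of phosphorylation was read as coumarin/fluorescein FRET fluorescence.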

[3] = test system: JAK1/3 signaling to STAT5 in primary T cells; assay: IL2 stimulation of JAK1/3 signaling to STAT5 in primary T cells (pSTAT5 Y694, FACS); type: cell-based; conditions: T-cell; for inhibition at 0.2 µM: 0.2 uM compound, read-out: IL-2/STAT5 Percent Inhibition at 0.2 uM; for inhibition at 1 µM: 1.0 μM compound, read-out: IL-2/STAT5 Percent Inhibition at 1.0 μM
Method: IL2 Stimulation of JAK1/3 Signaling to STAT5 in Primary T Cells:
The effect of JAK inhibitors on cytokine signaling pathways utilizing JAK3 was determined using an IL2 stimulation assay. IL2 engages a receptor complex that contains the IL2 receptor alpha and beta subunits, and the common gamma chain, to initiate activation of JAK1 and JAK3 leading to phosphorylation of STAT5 at tyrosine position 694. Lymphocytes are isolated from heparinized whole blood over a ficoll gradient, then resuspended in tissue culture media containing 10% fetal calf serum at 10×10̂6 cells/ml. 100 μl aliquots are pre-treated for 1 hour with various concentrations of compound, and then stimulated for 12 minutes with 100 U/ml IL2. The signaling reaction is terminated by fixing in 2% paraformaldehyde for 10 minutes at room temperature. Fixed cells are then washed and permeablized by suspension in 50% methanol (in PBS) at −80° C. Following overnight incubation at 4° C., cells are washed and resuspended in PBS containing 0.5% bovine serum albumin containing CD3-APC and pSTAT5 Y694-PE conjugated antibodies. After 1 hour incubation, cells are washed and the extent of STAT5 phosphorlyation in T cells is measured by FACS analysis.

[4] = target: T3, JAK2 (Homo sapiens, UniProt O60674); assay: Z'-LYTE kinase assay JAK2; type: biochemical
T3 construct: 5 μl of catalytic domain recombinant Kinase enzyme+Tyr peptide substrate (Invitrogen, CA); purchased Invitrogen
Summary of the method: as §1

[5] = target: T4, JAK3 (Homo sapiens, UniProt P52333); assay: Z'-LYTE kinase assay JAK3; type: biochemical
T4 construct: 5 μl of catalytic domain recombinant Kinase enzyme+Tyr peptide substrate (Invitrogen, CA); purchased Invitrogen
Summary of the method: as §1

[6] = test system: JAK1/3 signaling to STAT6 in Ramos B cells; assay: IL4 stimulation of JAK1/3 signaling to STAT6 in Ramos B cells (pSTAT6 Y641, FACS); type: cell-based; conditions: Homo sapiens; for inhibition at 0.2 µM: 0.2 uM compound, read-out: IL-4/STAT6 in Ramos Percent Inhibition at 0.2 uM; for inhibition at 1 µM: 1.0 uM compound, read-out: IL-4/STAT6 in Ramos Percent Inhibition at 1.0 uM
Summary of the method: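 Ramos cells in 10% FCS medium were pre-treated 1 h with compound, stimulated 15 min with 15 ng IL4, fixed in 2% paraformaldehyde and methanol-permeabilized. Intracellular phospho-STAT6 Y641 was stained with PE-conjugated antibody and quantified by flow cytometry.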

T4 sequence (P52333 822-1111 limits assumed): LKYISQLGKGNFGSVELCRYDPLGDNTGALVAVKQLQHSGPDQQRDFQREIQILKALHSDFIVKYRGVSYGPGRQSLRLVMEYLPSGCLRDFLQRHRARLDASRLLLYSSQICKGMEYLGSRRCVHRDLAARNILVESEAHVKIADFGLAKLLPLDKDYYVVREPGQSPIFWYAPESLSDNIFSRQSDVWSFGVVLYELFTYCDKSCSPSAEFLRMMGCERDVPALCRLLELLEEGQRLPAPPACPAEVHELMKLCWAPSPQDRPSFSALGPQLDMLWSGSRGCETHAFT
T2 sequence (P23458 875-1153 limits assumed): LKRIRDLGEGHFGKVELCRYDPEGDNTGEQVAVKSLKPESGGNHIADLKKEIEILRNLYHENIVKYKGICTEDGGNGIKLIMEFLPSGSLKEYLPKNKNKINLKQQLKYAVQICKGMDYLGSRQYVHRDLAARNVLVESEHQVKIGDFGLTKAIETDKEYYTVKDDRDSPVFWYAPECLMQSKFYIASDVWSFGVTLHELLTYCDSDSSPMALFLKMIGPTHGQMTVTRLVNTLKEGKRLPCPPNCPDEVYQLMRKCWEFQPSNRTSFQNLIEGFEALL
T3 sequence (O60674 849-1124 limits assumed): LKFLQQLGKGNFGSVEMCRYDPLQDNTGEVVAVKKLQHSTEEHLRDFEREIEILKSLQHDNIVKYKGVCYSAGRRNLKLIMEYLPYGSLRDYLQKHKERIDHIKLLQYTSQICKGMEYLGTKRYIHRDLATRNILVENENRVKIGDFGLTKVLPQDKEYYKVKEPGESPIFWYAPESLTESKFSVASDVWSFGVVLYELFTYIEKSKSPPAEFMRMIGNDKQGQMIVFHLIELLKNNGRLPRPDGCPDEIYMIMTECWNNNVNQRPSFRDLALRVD

Compound | IC50 [1] [µM] | IC50 [2] [µM] | inhibition at 0.2 µM [3] [%] | inhibition at 1 µM [3] [%] | IC50 [4] [µM] | IC50 [5] [µM] | inhibition at 0.2 µM [6] [%] | inhibition at 1 µM [6] [%]
COc1ccc(Nc2cc(NCc3cccc4[nH]ccc34)c(C(N)=O)cn2)cc1 [Example 294, 4-((1H-indol-4-yl)methylamino)-6-(4-methoxyphenylamino)nicotinamide] | 0.1 to 1 | 0.01 to 0.1 | 75 | 102 | 0.01 to 0.1 | 0.001 to 0.01 | – | –
Cc1cc(Nc2cc(NCc3cccc4ccsc34)c(C(N)=O)cn2)ccc1C(=O)N1CCCC1 [Example 458, 4-(benzo[b]thiophen-7-ylmethylamino)-6-(3-methyl-4-(pyrrolidine-1-carbonyl)phenylamino)nicotinamide] | 0.01 to 0.1 | 0.1 to 1 | 49 | 104 | 0.01 to 0.1 | 0.001 to 0.01 | – | –
CS(=O)(=O)Nc1ccc(Nc2cc(NCc3ccccc3)c(C(N)=O)cn2)cc1 [Example 389] | 0.1 to 1 | 0.1 to 1 | 56 | 88 | 0.1 to 1 | 0.001 to 0.01 | – | –
Cc1cc(Nc2cc(NCc3cccc4[nH]ccc34)c(C(N)=O)cn2)ccc1C(=O)N1CCCC1 [Example 461, 4-((1H-indol-4-yl)methylamino)-6-(3-methyl-4-(pyrrolidine-1-carbonyl)phenylamino)nicotinamide] | 0.001 to 0.01 | 0.001 to 0.01 | 94 | 101 | < 0.001 | < 0.001 | – | –
NC(=O)c1cnc(Nc2ccc(OC(F)(F)F)cc2)cc1NCc1cccc2[nH]ccc12 [Example 322, 4-((1H-indol-4-yl)methylamino)-6-(4-(trifluoromethoxy)phenylamino)nicotinamide] | > 1 | > 1 | 27 | 70 | > 1 | 0.1 to 1 | – | –
NC(=O)c1cnc(Nc2ccc(F)cc2)cc1NCc1cccc2[nH]ccc12 [Example 319, 4-((1H-indol-4-yl)methylamino)-6-(4-fluorophenylamino)nicotinamide] | 0.1 to 1 | 0.1 to 1 | 81 | 103 | 0.1 to 1 | 0.001 to 0.01 | – | –
CC(=O)N1CC(c2ccc(Nc3cc(NCc4cccc5ccsc45)c(C(N)=O)cn3)cc2)C1 [Example 333, 6-(4-(1-acetylazetidin-3-yl)phenylamino)-4-(benzo[b]thiophen-7-ylmethylamino)nicotinamide] | – | 0.1 to 1 | 35 | 84 | 0.01 to 0.1 | 0.001 to 0.01 | – | –
CS(=O)(=O)Nc1cccc(Nc2cc(NCc3ccccc3)c(C(N)=O)cn2)c1 [Example 388] | 0.1 to 1 | 0.1 to 1 | 18 | 55 | 0.1 to 1 | 0.001 to 0.01 | – | –
NC(=O)c1cnc(Nc2cccc(C(=O)N3CCC3)c2)cc1NCc1ccccc1 [Example 45, 6-(3-(azetidine-1-carbonyl)phenylamino)-4-(benzylamino)nicotinamide] | > 1 | 0.1 to 1 | 22 | 25 | 0.1 to 1 | 0.01 to 0.1 | – | –
NC(=O)c1cnc(Nc2ccc(N3CCN(c4ccccn4)CC3)cc2)cc1NCc1ccccc1 [Example 385] | – | > 1 | 37 | 62 | > 1 | 0.01 to 0.1 | – | –
COCCOc1cccc(Nc2cc(NCc3ccccc3)c(C(N)=O)cn2)c1 [Example 433, -(benzylamino)-6-(3-(2-methoxyethoxyl)phenylamino)nicotinamide] | > 1 | 0.1 to 1 | – | – | 0.1 to 1 | 0.01 to 0.1 | 18 | 27
CC(=O)N1CCN(c2ccc(Nc3cc(NCc4cccs4)c(C(N)=O)cn3)cc2)CC1 [Example 122, 6-(4-(4-acetylpiperazin-1-yl)phenylamino)-4-(thiophen-2-ylmethylamino)nicotinamide] | 0.01 to 0.1 | 0.1 to 1 | – | – | 0.1 to 1 | 0.001 to 0.01 | 34 | 57
COc1cc(Nc2cc(NCc3cccc(F)c3)c(C(N)=O)cn2)ccc1N1CCCC1=O [Example 63, 4-(3-fluorobenzylamino)-6-(3-methoxy-4-(2-oxopyrrolidin-1-yl)phenylamino)nicotinamide] | > 1 | 0.1 to 1 | – | – | 0.1 to 1 | 0.001 to 0.01 | 32 | 46
CC(=O)N1CCN(c2ccc(Nc3cc(NCc4cccc(Cl)c4)c(C(N)=O)cn3)cc2)CC1 [Example 257, 6-(4-(4-acetylpiperazin-1-yl)phenylamino)-4-(3-chlorobenzylamino)nicotinamide] | 0.1 to 1 | 0.1 to 1 | – | – | 0.01 to 0.1 | 0.001 to 0.01 | 34 | 65
NC(=O)c1cnc(Nc2ccc(N3CCCCC3=O)cc2)cc1NCc1ccccc1F [Example 71, 4-(2-fluorobenzylamino)-6-(4-(2-oxopiperidin-1-yl)phenylamino)nicotinamide] | 0.1 to 1 | 0.1 to 1 | – | – | 0.1 to 1 | 0.001 to 0.01 | 22 | 37
NC(=O)c1cnc(Nc2ccc(C3CCNCC3)cc2)cc1NCc1cccc(F)c1 [Example 70, 4-(3-fluorobenzylamino)-6-(4-(piperidin-4-yl)phenylamino)nicotinamide] | 0.1 to 1 | 0.1 to 1 | – | – | 0.01 to 0.1 | 0.001 to 0.01 | 23 | 45
NC(=O)c1cnc(Nc2ccc(N3CCOCC3)cc2)cc1Nc1ccc(N2CCOCC2)cc1 [Example 16, 4,6-bis(4-morpholinophenylamino)nicotinamide] | > 1 | > 1 | – | – | > 1 | 0.01 to 0.1 | 17 | 46
CNC(=O)[C@@H]1CCCN(c2ccc(Nc3cc(NCc4ccccc4)c(C(N)=O)cn3)cc2)C1 [Example 6, (R)-4-(benzylamino)-6-(4-(3-(methylcarbamoyl)piperidin-1-yl)phenylamino)nicotinamide] | 0.1 to 1 | 0.1 to 1 | – | – | 0.1 to 1 | 0.001 to 0.01 | 39 | 65
CN(C)C(=O)c1ccc(Nc2cc(NCc3cccc(-c4ccncc4)c3)c(C(N)=O)cn2)cc1 [Example 412, 6-(4-(dimethylcarbamoyl)phenylamino)-4-(3-(pyridine-4-yl)benzylamino)nicotinamide] | – | 0.1 to 1 | 25 | 59 | 0.1 to 1 | 0.001 to 0.01 | – | –
COCC(=O)N1CCC(c2ccc(Nc3cc(NCc4ccccc4F)c(C(N)=O)cn3)cc2)CC1 [Example 116, 4-(2-fluorobenzylamino)-6-(4-(1-(2-methoxyacetyl)piperidin-4-yl)phenylamino)nicotinamide] | 0.1 to 1 | 0.1 to 1 | – | – | 0.01 to 0.1 | 0.001 to 0.01 | 25 | 43
NC(=O)c1cnc(Nc2cccc(OCCN3CCCC3)c2)cc1NCc1cccnc1 [Example 60, 4-(pyridin-3-ylmethylamino)-6-(3-(2-(pyrrolidin-1-yl)ethoxy)phenylamino)nicotinamide] | > 1 | 0.1 to 1 | – | – | 0.1 to 1 | 0.001 to 0.01 | 22 | 40
